Experimental data: patent US9603877B2, “Isolated nucleotide molecule and method of sensing and killing of pathogenic microorganism” (priority 2011, dated 2017)

Key:
[1] = biological target: T1, Pseudomonas aeruginosa LasR, SEQ ID NO: 1 (UniProt: PSPA7_3898), in sensing device pTetR-LasR-pLuxR-GFP (Pseudomonas aeruginosa, UniProt P25084); experiment: Characterization/transfer function of the LasR sensing device (pTetR-LasR-pLuxR-GFP) with 3OC12HSL, GFP reporter in E. coli TOP10; assay type: cell-based, P. aeruginosa
T1 construct: expressed in transfected cells; host or cells: E. coli TOP10 (plasmid pTetR-LasR-pLuxR-GFP in pSB1A2)
T1 sequence (P25084 whole entry M144I): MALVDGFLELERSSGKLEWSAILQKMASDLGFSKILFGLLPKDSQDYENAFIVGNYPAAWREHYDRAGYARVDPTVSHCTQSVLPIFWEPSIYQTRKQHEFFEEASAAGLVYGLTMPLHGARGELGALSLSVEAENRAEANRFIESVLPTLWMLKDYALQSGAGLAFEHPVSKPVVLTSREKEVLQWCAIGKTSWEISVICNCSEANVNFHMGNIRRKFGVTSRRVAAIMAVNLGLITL
Experimental: Single colonies of pTetR-LasR-pLuxR-GFP (Top10) were each inoculated into 5 ml of pre-warmed supplemented M9 ampicillin for overnight culture in a shaking incubator at 37° C. After overnight growth, the cultures were diluted to OD600 of 0.002 and allowed to incubate further to OD600 of 0.5 or 5.0E7 cfu/ml under the same condition. […] The plate was incubated at 37° C. with rapid shaking in a microplate reader (Biotek) and assayed for green fluorescence. Time-series fluorescence and OD600 data were obtained at intervals of 10 mins for a total run time of 3 hrs. The measurement was zeroed with supplemented M9 to remove background fluorescence and OD600. A relative GFP production rate was derived as a ratio of background subtracted green fluorescence to OD600 value.
The four parameters (A, B, C, n) were estimated to obtain the best fit curve by performing a non-linear curve fitting using the experimental results. This curve fitting was performed using MATLAB Curve Fitting Toolbox (The Mathworks, Natwick, Mass., USA).

[2] = test system: E. coli carrying pTetR-LasR-pLuxR-E7; experiment: Characterization of lysis device with 3OC12HSL (OD600 of E. coli carrying pTetR-LasR-pLuxR-E7); assay type: cell-based
Experimental: Characterization of Lysis Device with 3OC12HSL
Overnight cultures of pTetR-LasR-pLuxR-E7 (Top10) were diluted in supplemented M9 and harvested at an OD600 of 0.5. […] The plate was incubated at 37° C. with rapid shaking in a microplate reader (Biotek) and assayed for cell turbidity. Time-series absorbance at OD600 was obtained at intervals of 10 mins for a total run time of 6 hrs. The result was zeroed with supplemented M9 to remove background absorbance.
The system according to various embodiments was designed to release pyocin S5 through lysis upon detection of P. aeruginosa. To determine the lysis activity of the system, the behavior of the E7 lysis protein under the transcriptional control of the sensing device before integrating both the pyocin S5 and E7 genes into the system was characterized. […] To further confirm that the lysis activity may be sustained in the final system including pyocin S5, the morphology of E. coli containing the final system (i.e., pTetR-LasR-pLuxR-S5-pLuxR-E7; FIG. 1B) was monitored using FESEM.

For CCCCCCCCCC(=O)CC(=O)N[C@H]1CCOC1=O [3OC12HSL, N-3-oxododecanoyl homoserine lactone], the “input concentration at which the sensing device saturated” value ([1]; Hill model, >3.3E-7M but <1.0E-6M) was over 330 nM, the “maximum output (GFP production rate) at saturation” value ([1]; Hill model, input concentration >3.3E-7M but <1.0E-6M) was 1.96 RFU per OD per minute and the “concentration at which GFP production rate peaked” value ([1]; sharp increase beyond 1.0E-7M, sharp decline after peak) was 1000 nM. The “growth/lysis of E. coli (OD600) at 1.0E-6 and 1.0E-4M 3OC12HSL” value ([2]; 1.0E-6 and 1.0E-4M 3OC12HSL) was “significant reduction in optical density”, the “growth/lysis of E. coli (OD600) at 1.0E-8M 3OC12HSL” value ([2]; 1.0E-8M 3OC12HSL) was “no noticeable transition into a lysis state” and the minimal effective concentration ([2]; Escherichia coli, 2 h, read-out: concentration causing observable cell lysis) was at least 1 µM.
